Test results published in patent publication US20250092056A1, “URACIL DERIVATIVES HAVING VIRUS REPLICATION INHIBITORY ACTIVITY AND PHARMACEUTICAL COMPOSITION COMPRISING THE SAME” (Shionogi & Co., Ltd., priority 2022, published 2025).

Key:
[1] = molecular target: Recombinant SARS-CoV-2 3CL Protease (Severe acute respiratory syndrome coronavirus 2 (2019-nCoV) (SARS-CoV-2), UniProt P0DTD1); experiment: biochemical; assay type: biochemical; details: 50% SARS-CoV-2 3CL protease inhibitory concentration; read-out: IC50
[2] = tested on: SARS-CoV-2; experiment: Cytopathic effect (CPE) suppression effect confirmation test using HEK293T/ACE2-TMPRSS2 cells; assay type: cell-based; details: Severe acute respiratory syndrome coronavirus 2, HEK-293T; 50% SARS-CoV-2 infected cell death inhibitory concentration; HEK293T/ACE2-TMPRSS2 cells; read-out: EC50

SMILES	IC50 [1]	EC50 [2]
CC(=O)Nc1cccc(-c2c(N3CCC(F)(F)CC3)n(CC#N)c(=O)n(-c3cncc(Cl)c3)c2=O)c1 [Compound I-263]	> 100 nM	1000 to 5000 nM
N#CCn1c(N2CC3(CCOC3)C2)c(C2=CCCCC2)c(=O)n(-c2cncc(Cl)c2)c1=O [Compound I-264]	< 10 nM	< 100 nM
N#CCn1c(-c2ccc(C3CC3)cc2)c(N2CCCCC2)c(=O)n(-c2cncc(Cl)c2)c1=O [Compound I-265]	10 to 100 nM	100 to 1000 nM
N#CCn1c(C2CCC(F)(F)CC2)c(-c2ccnc(C(F)(F)F)c2)c(=O)n(-c2cncc(Cl)c2)c1=O [Compound I-266]	10 to 100 nM	100 to 1000 nM
Cc1ccc(-c2c(-c3ccc(F)c(Cl)c3)c(=O)n(-c3cncc(C)c3)c(=O)n2CC#N)cc1 [Compound I-270]	< 10 nM	< 100 nM
COc1ccc(-c2c(-c3ccc(F)c(Cl)c3)c(=O)n(-c3cncc(C)c3)c(=O)n2CC#N)cc1 [Compound I-271]	< 10 nM	< 100 nM
Cc1cncc(-n2c(=O)c(-c3ccc(F)c(Cl)c3)c(-c3ccc(F)cc3)n(CC#N)c2=O)c1 [Compound I-272]	< 10 nM	< 100 nM
Cc1cncc(-n2c(=O)c(-c3ccc(F)c(Cl)c3)c(-c3ccc(C(N)=O)cc3)n(CC#N)c2=O)c1 [Compound I-273]	< 10 nM	< 100 nM
Cc1cncc(-n2c(=O)c(-c3ccc(F)c(Cl)c3)c(-c3ccc(N(C)C)cc3)n(CC#N)c2=O)c1 [Compound I-274]	< 10 nM	< 100 nM
Cc1cncc(-n2c(=O)c(-c3ccc(F)c(Cl)c3)c(-c3ccc(S(N)(=O)=O)cc3)n(CC#N)c2=O)c1 [Compound I-275]	< 10 nM	100 to 1000 nM
Cc1cncc(-n2c(=O)c(-c3ccc(F)c(Cl)c3)c(NS(=O)(=O)c3ccccc3)n(CC#N)c2=O)c1 [Compound I-276]	< 10 nM	< 100 nM
Cc1cc(-n2c(=O)c(-c3ccc(F)c(Cl)c3)c(N3CC4(C3)CC(F)(F)C4)n(CC#N)c2=O)c[n+]([O-])c1 [Compound I-278]	< 10 nM	100 to 1000 nM
Cc1cncc(-n2c(=O)c(-c3ccc(F)c(Cl)c3)c(-c3cn[nH]c3)n(CC#N)c2=O)c1 [Compound I-279]	< 10 nM	< 100 nM
Cc1cncc(-n2c(=O)c(-c3ccc(F)c(Cl)c3)c(Oc3ccccc3)n(CC#N)c2=O)c1 [Compound I-280]	< 10 nM	< 100 nM
N#CCn1cc(-c2ccc(F)c(Cl)c2)c(=O)n(-c2cncc(Cl)c2)c1=O [Compound I-281]	10 to 100 nM	< 100 nM
CCCCc1c(N2CC3(CCOC3)C2)n(CC#N)c(=O)n(-c2cncc(Cl)c2)c1=O [Compound I-284]	10 to 100 nM	< 100 nM
CCCCc1c(-c2ccc(F)cc2)n(CC#N)c(=O)n(-c2cncc(Cl)c2)c1=O [Compound I-286]	10 to 100 nM	100 to 1000 nM
N#CCn1c(N2CC(F)(c3ncccn3)C2)c(-c2ccc(F)c(Cl)c2)c(=O)n(-c2cncc(Cl)c2)c1=O [Compound I-287]	< 10 nM	< 100 nM
CC(C)(O)C1(F)CN(c2c(-c3ccc(F)c(Cl)c3)c(=O)n(-c3cncc(Cl)c3)c(=O)n2CC#N)C1 [Compound I-289]	< 10 nM	< 100 nM
N#CCn1c(N2CC(F)(F)C2)c(-c2ccc(F)c(Cl)c2)c(=O)n(-c2cncc(Cl)c2)c1=O [Compound I-290]	< 10 nM	< 100 nM
Cc1cncc(-n2c(=O)c(-c3cc(F)c(F)c(F)c3)c(/C=C/C(C)(C)O)n(CC#N)c2=O)c1 [Compound I-291]	10 to 100 nM	< 100 nM
N#CCn1c(N2CC3(CCOCC3)C2)c(-c2ccc(F)c(Cl)c2)c(=O)n(-c2cncc(Cl)c2)c1=O [Compound I-292]	< 10 nM	< 100 nM
N#CCn1c(N2CC(C(F)(F)F)C2)c(-c2ccc(F)c(Cl)c2)c(=O)n(-c2cncc(F)c2)c1=O [Compound I-295]	< 10 nM	< 100 nM
CC1(O)CN(c2c(-c3ccc(F)c(Cl)c3)c(=O)n(-c3cncc(Cl)c3)c(=O)n2CC#N)C1 [Compound I-296]	< 10 nM	< 100 nM
Cc1cncc(-n2c(=O)c(-c3ccc(F)c(Cl)c3)c(C3=CC4(CCOCC4)C3)n(CC#N)c2=O)c1 [Compound I-297]	< 10 nM	< 100 nM
N#CCn1c(N2CC(OC(F)F)C2)c(-c2ccc(F)c(Cl)c2)c(=O)n(-c2cncc(Cl)c2)c1=O [Compound I-298]	< 10 nM	< 100 nM
Cc1c(-c2ccc(F)c(Cl)c2)c(=O)n(-c2cncc(Cl)c2)c(=O)n1CC#N [Compound I-299]	< 10 nM	< 100 nM
N#CCn1c(N2CC(F)(C3CC3)C2)c(-c2ccc(F)c(Cl)c2)c(=O)n(-c2cncc(F)c2)c1=O [Compound I-300]	< 10 nM	< 100 nM
